The values below come from US4223041A, “Urea derivatives to treat anxiety and aggressivity” (Labaz, priority 1976, dated 1980).

Assay [1] in a line: Action on the pentylenetetrazole-induced seizure (anticonvulsant activity). To be noted: Mus musculus, 3 h; 320 mg/kg oral, mice, 15 min before 125 mg/kg pentylenetetrazole; read-out: % of protection against death. It counts as in vivo, mouse. The method, then: The purpose of this test which is carried out on mice is to determine whether the compounds of the invention, when given preventively by oral route, are capable at certain doses of protecting some of the animals against the epileptic seizure produced by a predetermined dose of pentylenetetrazole which would be 100% fatal in the absence of the compound.
The compound to be studied was administered fifteen minutes before an injection of 125 mg/kg of pentylenetetrazole and note was taken of the number of deaths occurring during the three hours following this injection. The results were expressed in percentage of protection of the animals against death at the dose studied.

Assay [2] can be described thus: Action with respect to tremorine (cholinolytic properties). It counts as in vivo, mouse. The protocol:
This test has been described by EVERETT (Nature, 1956, 177-238)
When injected into mice, tremorine produces peripheral cholinergic effects i.e. weeping, hypersalivation, sedation, diarrhea as well as central cholinergic effects i.e. tremors, akinesia.
Batches of 10 mice separated into individual cages, were given the compound to be studied, by oral route, 30 minutes before administration of an intraperitoneal dose of 100 mg/kg of tremorine.
Note was then taken in each batch of the percentage of animals presenting the various symptoms of tremorine-induced poisoning since at such a dose of tremorine 100% of the control animals are poisoned.
The results hereunder are expressed in percentage of mice protected against tremor at the dose of the compound of the invention which was administered: […]

Regarding `CCCC(CCC)(CCC)NC(N)=O` [Compound A, 1-(1,1-Di-n-propyl-n-butyl)-urea], in assay [1], the responders at 320 mg/kg was found to be 50%. The “% of protection against tremor” value in assay [2] (200 mg/kg oral, mice, 30 min before 100 mg/kg i.p. tremorine) worked out at 0%. Further, the “protection against central or peripheral cholinergic effects provoked by tremorine” value in assay [2] (100, 300, 400 and 500 mg/kg oral) is “did not protect any animal”.
